A short description of series [1]: Photo-fading under near-infrared pulse laser irradiation. Conditions: 4 irradiations. In kind it is physicochemical. On the procedure: With respect to each of Cy7-PMPC (58 k) represented by the formula (47), 700DX-PMPC (57 k) represented by the formula (48), 800CW-PMPC (57 k) represented by the formula (49) and 800RS-PMPC (57 k) represented by the formula (50) obtained in Examples 22, 23, 24 and 25, respectively, and ICG-PMPC (48 k) represented by formula (46) described in Example 12, 2.0 mL of a sample was prepared in which the concentration of each dye-bound PMPC was adjusted so that the absorbance at the maximum absorption wavelength was 0.15. A sample of single ICG as Comparative Example was also prepared. Herein, the irradiation wavelength of near-infrared pulse laser light by use of the PAT apparatus and the excitation wavelength in fluorescence spectrum measurement were set to be the maximum absorption wavelengths of each dye-bound PMPC and ICG. Herein, the excitation wavelengths and the fluorescence emission wavelengths of each dye-bound PMPC and ICG were summarized in FIG. 16. The amount of near-infrared pulse laser light was set to be 8 to 9 mJ at each wavelength, and irradiation at 120 points (detector position) per 20 times was defined as one irradiation and such irradiation was performed at most four times. […] The resultant sample was placed in a 100-μL cuvette, subjected to fluorescence spectrum measurement (FP-6300 manufactured by JASCO Corporation), and studied with respect to photo-fading. […]

The conditions of series [2]: background art; cited from earlier work.

Regarding `CC1(C)C(/C=C/C=C/C=C/C=C2/N(CCCCS(=O)(=O)[O-])c3ccc4ccccc4c3C2(C)C)=[N+](CCCCS(=O)(=O)[O-])c2ccc3ccccc3c21.[Na+]` [ICG, indocyanine green], the “Photo-fading: normalized fluorescent intensity remaining after laser irradiation” value in series [1] is recorded as “about 15%”. Moreover, the Half-life in blood entry in series [2] is given as “about several minutes”.

The values are drawn from patent US10398788B2, “Polymer and contrast agent for photoacoustic imaging including the polymer” (CANON KABUSHIKI KAISHA, priority 2014, dated 2019).
